“And” between values parts separate entries of the source, which are not always exact repeats. Equal entries are not always repeated. Structures can show the parent of a compound that is named as a salt. Where two headings read alike, the source gives them in different places.
How the values were obtained:
Assay type in all cases: in vivo
Male Sprague-Dawley rats [1] = experiment: Spinal anesthetic effect (spinal blockade) after intrathecal injection in rats; parameters: AUC of time-% PE curve, spinal blockade of motor function / AUC of time-% PE curve, spinal blockade of proprioception / AUC of time-% PE curve, spinal blockade of nociceptive reaction: unit not given beside the values; settings: for AUC of time-% PE curve, spinal blockade of motor function / AUC of time-% PE curve, spinal blockade of nociceptive reaction / AUC of time-% PE curve, spinal blockade of proprioception: 2 ED50 when administered independently, ED50 of each drug when co-administered, mean ± SEM; for Motor function ED50 (95% CI): spinal blockade of motor function; for Motor function ED50 (95% CI) / Nociceptive reaction ED50 (95% CI) / Proprioception ED50 (95% CI): intrathecal injection; for Nociceptive reaction ED50 (95% CI): spinal blockade of nociceptive reaction; for Proprioception ED50 (95% CI): spinal blockade of proprioception; for Mean value ED25 / Mean value ED50 / Mean value ED75: spinal blockade, mean of motor function, proprioception and nociceptive reaction
Protocol: (§1) Male Sprague-Dawley rats (weighing about 300 to 350 g); for each dose of each drug, n=6.
In brief, for preparation, the hairs on the back of each rat were shaved, and the shaved back was sterilized with iodine.
After three minutes, 50 μL of each of the tested drugs was injected via a 27-gauge needle attached to a 100-μL syringe (Hamilton, Reno, Nev.) into the intrathecal space between the fourth and fifth lumbar vertebrae. The development of spinal blockade was observed from the paralysis of the hind limbs of the rats.
The magnitude of nerve block (including blocking of motor function, proprioception, and nociceptive reaction) was expressed as the percentage of possible effect (hereinafter referred to as % PE), and the maximal value of % PE was expressed as the percentage of maximal possible effect (hereinafter referred to as % MPE).
Motor function was evaluated by measuring the extensor postural thrust of the right hind limbs of the rats using a digital platform balance (Mettler Toledo, Switzerland, model PB1502-S). To test the extensor postural thrust, the rat was held upright with the hind limb extended, so that the body weight of the rat was supported by the distal metatarsus and toes. The extensor postural thrust could be measured as the force of the right hind limb of the rat thrusting the platform balance.
A reduction in the force, resulting in extensor muscle tone, was considered as a motor deficit. A force less than 20 g (i.e., a weight of the “flaccid limb”) was considered absence of an extensor postural thrust or 100% motor block or 100% MPE.
Proprioception was evaluated based on resting posture and postural reactions (including tactile placing and hopping). First, the front half of the rat body and one of the hind limbs were lifted off the ground at the same time so that the rat was standing on one hind limb. Then, the rat was moved laterally, which normally evoked a prompt hopping response of the weight-bearing hind limb of the rat in the direction of movement so as to avoid falling. A predominantly proprioceptive block caused a delayed hopping followed by greater lateral hops. […] Functional deficits were classified into four grades: 3 (normal or 0% MPE), 2 (slightly impaired), 1 (severely impaired), and 0 (completely impaired or 100% MPE).
Nociceptive reaction was evaluated by the withdrawal reflex or vocalization elicited by the pinch of a skin fold over the back at 1 cm near the proximal part of the tail, the lateral metatarsus of the bilateral hind limbs, and the dorsal part of the mid-tail. At each testing time, only one pinch was given to each of the abovementioned four testing sites, and the time interval between stimulations at different sites was around 2 seconds. Nociceptive reactions were classified into five grades: 4 (normal or 0% MPE), 3 (25% MPE), 2 (50% MPE), 1 (75% MPE), and 0 (absent or 100% MPE).
The potency of each drug on spinal blockades was compared using ED50.
Duration was defined as the interval from injection of the tested drugs to complete recovery. The ED25, ED50 and ED75 obtained according to the SAS NLIN analysis in the preceding section “C. Potency evaluation” were used in this experiment.
Regarding the method of evaluating the effect of co-administration, dextromethorphan hydrobromide monohydrate was used as an example.
After the tests, the time of measurement of each drug and its corresponding % PE were plotted to obtain the time-% PE curves of each drug. The area under the curve (AUC) of time-% PE was calculated using the trapezoidal rule, and was used to evaluate the effect of the co-administration of the drugs.
Statistical software, SPSS for Windows® (version 10.0.7) was used. Data were represented as mean±SEM.

sciatic nerve = experiment: Sciatic nerve blockade after injection at the sciatic nerve notch in rats; parameters: AUC of time-% PE curve, sciatic nerve blockade of motor function / AUC of time-% PE curve, sciatic nerve blockade of proprioception / AUC of time-% PE curve, sciatic nerve blockade of nociceptive reaction: unit not given beside the values; settings: for ED50: Rattus norvegicus
Protocol: as §1
In brief, the rats were slightly anesthetized by inhalation of a low concentration of sevoflurane. Then, 200 μL of tested drugs were injected at the sciatic nerve notch at the left hind limb of the rat using a 27-gauge needle connected to a tuberculin syringe (Becton Dickinson, USA, model BND309623-BX). Thereafter, development of sciatic nerve blockade was observed from the paralysis of the left hind limb of the rat. The right hind limb served as a control during the subsequent functional assay
For proprioception, the front half of the rat body and the right hind limb were off the ground at the same time so that the rat was standing on the left hind limb during the measurement.
The differences resided in that: The sciatic nerve notch injections of ED25, ED50 and ED75 were conducted based on the method described in the preceding section “A. Drug injection” of this example. Evaluations of motor function, proprioception and nociceptive reaction were conducted based on the method described in section “B. Neurobehavioral evaluations” of this example.
The differences resided in that: Before the statistical analysis, Shapiro-Wilk test was used to evaluate whether the data were, theoretically, normally distributed.

Male Sprague-Dawley rats [2] = experiment: Infiltrative cutaneous anesthesia (inhibition of cutaneous trunci muscle reflex, CTMR) after subcutaneous injection in rats
Protocol: Male Sprague-Dawley rats (weighing about 200 to 250 g); for each dose of each drug, n=8.
In brief, hairs on the dorsal surface (about 10×10 cm^2) of the thoracolumbar region of the rat were shaved, and the shaved surface was sterilized with iodine for preparation. To reduce the number of animals used, the back of the rat was further divided into left and right parts. One drug was injected first at the right part. After a washout period of one week, another drug was injected at the left part.
0.6 mL of drug was injected subcutaneously under the dorsal surface of the thoracolumbar region of the rat using a 30-gauge needle attached to a syringe (Becton Drive, Franklin Lakes, USA). The subcutaneous injection would result in a circular elevation (i.e., a wheal) of the skin, about 2 cm in diameter. The elevation was marked with ink within 1 minute after injection.
CTMR refers to the reflex movement of the skin of the back caused by twitching of the lateral thoracispinal muscle in response to local dorsal cutaneous stimulation. Essentially, a von Frey filament (No.15; Somedic Sales AB, Sweden) to which a cut end of an 18-gauge needle was affixed was used to produce a standard nociceptive stimulus (strength: 19 g). Six pinpricks (at a frequency of 0.5-1 Hz) were applied to a single marked wheal during each test. […] For example, absence of any response to all of the 6 pinpricks was defined as a complete nociceptive block (i.e., 100% MPE).
The difference resided in that subcutaneous injections of ED25, ED50 and ED75 of the drugs were performed based on the method described in the section “A. Drug injection” of this example, and evaluation of the infiltrative cutaneous anesthetic effect was performed based on the method described in the section “B. Neurobehavioral evaluation” of this example.

[3] = read-out: Motor function ED50 (95% CI)
[4] = read-out: Nociceptive reaction ED50 (95% CI)
[5] = read-out: Proprioception ED50 (95% CI)
[6] = rats, 2ED50 when administered independently, ED50 of each drug when co-administered, mean ± SEM
[7] = intrathecal dose of ED75, injection to complete recovery, rats
[8] = intrathecal dose of ED75, rats, mean±SEM
[9] = intrathecal, rats, hydrochloride
[10] = dosage of 6.7 mg/kg, sciatic nerve notch injection, rats
[11] = infiltrative cutaneous anesthesia, rats, 2ED50 when administered independently, ED50 for co-administration, mean ± SEM, hydrochloride
[12] = infiltrative cutaneous anesthesia, subcutaneous injection, rats
[13] = subcutaneous dose of ED75, rats, mean±SEM

COc1ccc2c(c1)[C@@]13CCCC[C@H]1[C@@H](C2)NCC3.Cl [3-methoxymorphinan hydrochloride]
% MPE of spinal blockades of motor function, proprioception and nociceptive reaction (range over the three functions) (Male Sprague-Dawley rats [1]; intrathecal dose of ED75, rats): 66-79 % MPE | duration of spinal blockades of motor function, proprioception and nociceptive reaction (range over the three functions) (Male Sprague-Dawley rats [1]; intrathecal dose of ED75, rats): 28 to 35 min | effect of co-administration with bupivacaine hydrochloride on spinal blockade (Male Sprague-Dawley rats [1]; intrathecal, rats, ED50 of each drug): additive effect | AUC of time-% PE curve, spinal blockade of motor function (Male Sprague-Dawley rats [1]; intrathecal, rats): 1265 ± 232 | AUC of time-% PE curve, spinal blockade of nociceptive reaction (Male Sprague-Dawley rats [1]; intrathecal, rats): 2081 ± 227 | AUC of time-% PE curve, spinal blockade of proprioception (Male Sprague-Dawley rats [1]; intrathecal, rats): 1917 ± 254 | Motor function ED50 (95% CI) (Male Sprague-Dawley rats [1]; rats): 0.45 (0.43–0.47) mg | Nociceptive reaction ED50 (95% CI) (Male Sprague-Dawley rats [1]; rats): 0.39 (0.37–0.42) mg | Proprioception ED50 (95% CI) (Male Sprague-Dawley rats [1]; rats): 0.40 (0.38–0.43) mg | Mean value ED25 (Male Sprague-Dawley rats [1]; intrathecal, rats): 0.33 mg | Mean value ED50 (Male Sprague-Dawley rats [1]; intrathecal, rats): 0.41 mg | Mean value ED75 (Male Sprague-Dawley rats [1]; intrathecal, rats): 0.53 mg | sciatic nerve blocking effect on nociceptive reaction compared with motor function (sciatic nerve; ED50 basis, p<0.01, rats): more potent sciatic nerve blocking effect on nociceptive reaction than on motor function | ED50 (sciatic nerve; read-out: Mean ED50): 6.68 mg/kg | ED50 (sciatic nerve; [3]): 7.4 mg/kg | ED50 (sciatic nerve; [4]): 5.89 mg/kg | ED50 (sciatic nerve; [5]): 6.76 mg/kg | effect of co-administration with lidocaine hydrochloride on sciatic nerve blockades (sciatic nerve; rats, ED50 of each drug): additive effect | AUC of time-% PE curve, sciatic nerve blockade of motor function (sciatic nerve; [6]): 4559 ± 584 | AUC of time-% PE curve, sciatic nerve blockade of nociceptive reaction (sciatic nerve; [6]): 8026 ± 1437 | AUC of time-% PE curve, sciatic nerve blockade of proprioception (sciatic nerve; [6]): 5191 ± 652 | duration of sciatic nerve blockade compared with lidocaine hydrochloride (sciatic nerve; same effective doses (ED25, ED50 or ED75), rats): longer reaction duration

CCCCN1CCCCC1C(=O)Nc1c(C)cccc1C (centres unmarked) [Bupivacaine hydrochloride, reference compound]
duration of spinal blockade of motor function (Male Sprague-Dawley rats [1]; [7]): about 25±3 minutes | duration of spinal blockade of nociceptive reaction (Male Sprague-Dawley rats [1]; [7]): ~63 ± 7 min | duration of spinal blockade of proprioception (Male Sprague-Dawley rats [1]; [7]): ~32 ± 4 min | % MPE of spinal blockade of motor function (Male Sprague-Dawley rats [1]; [8]): about 71±3 % MPE | % MPE of spinal blockade of nociceptive reaction (Male Sprague-Dawley rats [1]; [8]): ~81±3 % MPE | % MPE of spinal blockade of proprioception (Male Sprague-Dawley rats [1]; [8]): ~72±4 % MPE | AUC of time-% PE curve, spinal blockade of motor function (Male Sprague-Dawley rats [1]; [9]): 1292 ± 113 and 1238 ± 147 and 1383 ± 131 | AUC of time-% PE curve, spinal blockade of nociceptive reaction (Male Sprague-Dawley rats [1]; [9]): 4378 ± 184 and 4512 ± 229 and 4410 ± 225 | AUC of time-% PE curve, spinal blockade of proprioception (Male Sprague-Dawley rats [1]; [9]): 2597 ± 245 and 2638 ± 308 and 2774 ± 299 | Motor function ED50 (95% CI) (Male Sprague-Dawley rats [1]; rats): 0.12 (0.11–0.12) mg | Nociceptive reaction ED50 (95% CI) (Male Sprague-Dawley rats [1]; rats): 0.09 (0.08–0.09) mg | Proprioception ED50 (95% CI) (Male Sprague-Dawley rats [1]; rats): 0.10 (0.10–0.11) mg | Mean value ED25 (Male Sprague-Dawley rats [1]; intrathecal, rats): 0.08 mg | Mean value ED50 (Male Sprague-Dawley rats [1]; intrathecal, rats): 0.11 mg | Mean value ED75 (Male Sprague-Dawley rats [1]; intrathecal, rats): 0.14 mg

CCN(CC)CC(=O)Nc1c(C)cccc1C [Lidocaine hydrochloride, reference compound]
ED50 (sciatic nerve; [3]): 2.67 mg/kg | ED50 (sciatic nerve; [4]): 2.35 mg/kg | ED50 (sciatic nerve; [5]): 2.57 mg/kg | % MPE of sciatic nerve blockade of motor function (sciatic nerve; [10]): 100 % MPE | % MPE of sciatic nerve blockade of nociceptive reaction (sciatic nerve; [10]): 100 % MPE | % MPE of sciatic nerve blockade of proprioception (sciatic nerve; [10]): 100 % MPE | duration of sciatic nerve blockade of motor function (sciatic nerve; [10]): about 63±6 minutes | duration of sciatic nerve blockade of nociceptive reaction (sciatic nerve; [10]): ~83 ± 6 min | duration of sciatic nerve blockade of proprioception (sciatic nerve; [10]): ~73 ± 4 min | ED50 (Male Sprague-Dawley rats [2]; Rattus norvegicus, sc, infiltrative cutaneous anesthesia, subcutaneous injection, rats, read-out: ED50 (95% CI)): 7 mg/kg | % MPE (Male Sprague-Dawley rats [2]; [11]): 90 ± 5 % MPE and 88 ± 6 % MPE | Duration (Male Sprague-Dawley rats [2]; [11]): 51 ± 3 min and 52 ± 4 min | ED25 (Male Sprague-Dawley rats [2]; [12]): 5.31 mg/kg | ED75 (Male Sprague-Dawley rats [2]; [12]): 9.24 mg/kg | % MPE of cutaneous nociceptive block (Male Sprague-Dawley rats [2]; [13]): 72±7 % MPE | duration of cutaneous nociceptive block (Male Sprague-Dawley rats [2]; [13]): ~33 ± 4 min

Source: patent US20080070939A1, “LOCAL […] COMPOSITIONS CONTAINING DEXTROROTATORY MORPHINAN DERIVATIVES OR PHARMACEUTICALLY ACCEPTABLE SALTS THEREOF” (CHI MEI FOUNDATION HOSPITAL, priority 2006, published 2008)
